“Also recorded” adds a separate entry of the source. Like-named read-outs stand apart in the source and are kept apart here. Marks after values point to notes of the source that are not given here.
Assays:
[1] = tested on: human D1 receptor knock-in mice; assay: Basal (Habituated) Locomotor Activity; format: in vivo, mouse; settings: for Basal Locomotor Activity (Total Ambulations for 60 min), mean: male human D1 knock-in mice, N = 8/group; for Effect on basal movement / locomotor activation (in words): oral dose response, habituated human D1 knock-in mice
Method: Locomotor activity is measured using an automated system to track movement in mice. Monitoring of mouse locomotor activity behaviors take place in transparent plastic shoebox cages having dimensions of 45×25×20 cm, with a 1 cm depth of wood chips for absorbent bedding, and covered with a ventilated filtered plastic cage top. Cages were placed in a rectangular frame containing a grid of 12 photocell beams in an 8×4 configuration (Kinder Scientific, Poway, Calif.) that is positioned 2.5 centimeters from the floor of the cage for the detection of body movements (ambulations) and recorded by computer.
Male human D1 receptor knock-in mice are placed in chambers and allowed to habituate to the chambers for 60 min. During the habituation period, the mice show decreasing locomotion over time, as expected. Following administration of a compound of the invention, animal movement is found to increase in a dose-dependent fashion.
The mice are randomly assigned to treatment groups. In the dose response study, each mouse is placed individually into one of the locomotor activity boxes for a 60 min. habituation period. The mice are then dosed orally using test compound in a 20% hydroxypropyl-betacyclodextrin vehicle and using a 10 mL/kg dose volume. After dosing, the mice are placed back into the LMA boxes and the total number of ambulations is recorded per 10 min interval for each mouse over a 60 min measurement period. Statistical analysis is carried out using one-way ANOVA followed by post-hoc analysis using Dunnett's Comparison test.

[2] = Plasma and Brain Levels after oral dosing; format: in vivo; settings: fed
Method: Example 1 is orally dosed to male mouse from 1 mg/kg to 30 mg/kg in fed condition, and the plasma and brain concentration are determined 1.5 hr post-dose. The fraction unbound of the compound is determined in vitro as described previously (Zamek-Gliszczynski M J, Ruterbories K J, Ajamie R T, Wickremsinhe E R, Pothuri L, Rao M V, Basavanakatti V N, Pinjari J, Ramanathan V K, Chaudhary A K (2011) Validation of 96-well equilibrium dialysis with non-radiolabeled drug for definitive measurement of protein binding and application to clinical development of highly-bound drugs. J Pharm Sci 100: 2498-2507). The ratio (Kpuu) of unbound brain concentration (Cu,brain) vs. unbound plasma concertation (Cu,plasma) is determined as described previously (Raub T J, Wishart G N, Kulanthaivel P, Staton B A, Ajamie R T, Sawada G A, Gelbert L M, Shannon H E, Sanchez-Martinez C, De Dios A (2015) Brain Exposure of Two Selective Dual CDK4 and CDK6 Inhibitors and the Antitumor Activity of CDK4 and CDK6 Inhibition in Combination with Temozolomide in an Intracranial Glioblastoma Xenograft. Drug Metab Dispos. 43:1360-71). The data presented below for Example 1 are averages from 3 animals at each dose. “Con.” refers to concentration. […]

[3] = Fraction unbound in plasma and brain, determined in vitro (equilibrium dialysis); format: in vitro ADME
Method: Example 1 is orally dosed to male mouse from 1 mg/kg to 30 mg/kg in fed condition, and the plasma and brain concentration are determined 1.5 hr post-dose. The fraction unbound of the compound is determined in vitro as described previously (Zamek-Gliszczynski M J, Ruterbories K J, Ajamie R T, Wickremsinhe E R, Pothuri L, Rao M V, Basavanakatti V N, Pinjari J, Ramanathan V K, Chaudhary A K (2011) Validation of 96-well equilibrium dialysis with non-radiolabeled drug for definitive measurement of protein binding and application to clinical development of highly-bound drugs. J Pharm Sci 100: 2498-2507). The ratio (Kpuu) of unbound brain concentration (Cu,brain) vs. unbound plasma concertation (Cu,plasma) is determined as described previously (Raub T J, Wishart G N, Kulanthaivel P, Staton B A, Ajamie R T, Sawada G A, Gelbert L M, Shannon H E, Sanchez-Martinez C, De Dios A (2015) Brain Exposure of Two Selective Dual CDK4 and CDK6 Inhibitors and the Antitumor Activity of CDK4 and CDK6 Inhibition in Combination with Temozolomide in an Intracranial Glioblastoma Xenograft. Drug Metab Dispos. 43:1360-71). The data presented below for Example 1 are averages from 3 animals at each dose. “Con.” refers to concentration.
Example 8 was orally dosed to male mouse from 3 mg/kg to 60 mg/kg in fed condition, and the plasma and brain concentration was determined 1 hr post-dose. The fraction unbound of the compound was determined in vitro as described previously (Zamek-Gliszczynski M J, et al., Validation of 96-well equilibrium dialysis with non-radiolabeled drug for definitive measurement of protein binding and application to clinical development of highly-bound drugs, J. Pharm. Sci. (2011) 100: 2498-2507). The ratio (Kpuu) of unbound brain concentration (Cu,brain) vs. unbound plasma concertation (Cu,plasma) was determined as described previously (Raub T J, et al., Brain Exposure of Two Selective Dual CDK4 and CDK6 Inhibitors and the Antitumor Activity of CDK4 and CDK6 Inhibition in Combination with Temozolomide in an Intracranial Glioblastoma Xenograft. Drug Metab. Dispos. (2015) 43:1360-71). The data presented below for Example 8 are averages from 3 animals at each dose.

[4] = 3 mg/kg oral, male mouse, 1.5 hr
[5] = 3 mg/kg oral, male mouse, 1.5 hr, read-out: Brain con.
[6] = 3 mg/kg oral, male mouse, 1.5 hr, read-out: Cu, brain
[7] = 3 mg/kg oral, male mouse, 1.5 hr, read-out: Cu, plasma
[8] = 10 mg/kg oral, male mouse, 1.5 hr
[9] = 10 mg/kg oral, male mouse, 1.5 hr, read-out: Brain con.
[10] = 10 mg/kg oral, male mouse, 1.5 hr, read-out: Cu, brain
[11] = 10 mg/kg oral, male mouse, 1.5 hr, read-out: Cu, plasma
[12] = 30 mg/kg oral, male mouse, 1.5 hr
[13] = 30 mg/kg oral, male mouse, 1.5 hr, read-out: Brain con.
[14] = 30 mg/kg oral, male mouse, 1.5 hr, read-out: Cu, brain
[15] = 30 mg/kg oral, male mouse, 1.5 hr, read-out: Cu, plasma
[16] = brain/plasma, 3 mg/kg oral, male mouse, 1.5 hr, read-out: Kpuu (Cu,brain vs. Cu,plasma)
[17] = brain/plasma, 10 mg/kg oral, male mouse, 1.5 hr, read-out: Kpuu (Cu,brain vs. Cu,plasma)
[18] = brain/plasma, 30 mg/kg oral, male mouse, 1.5 hr, read-out: Kpuu (Cu,brain vs. Cu,plasma)
[19] = fraction unbound in brain, read-out: fu, brain
[20] = fraction unbound in plasma, read-out: fu, plasma

Compound | Basal Locomotor Activity (Total Ambulations for 60 min), mean ([1]; 3.0 mg/kg PO) | Basal Locomotor Activity (Total Ambulations for 60 min), mean ([1]; 10 mg/kg PO) | Basal Locomotor Activity (Total Ambulations for 60 min), mean ([1]; 30 mg/kg PO) | Effect on basal movement / locomotor activation (in words) [1] | Plasma con. [2, 4] | concentration at 1 h [2, 5] | concentration at 1 h [2, 6] | concentration at 1 h [2, 7] | Plasma con. [2, 8] | concentration at 1 h [2, 9] | concentration at 1 h [2, 10] | concentration at 1 h [2, 11] | Plasma con. [2, 12] | concentration at 1 h [2, 13] | concentration at 1 h [2, 14] | concentration at 1 h [2, 15] | Kp uu [2, 16] | Kp uu [2, 17] | Kp uu [2, 18] | fraction unbound [3, 19] | also measured
C[C@H]1c2cccc(-c3cnn(C)c3)c2C[C@H](CO)N1C(=O)Cc1c(Cl)cccc1Cl [Example 1, 2-(2,6-dichlorophenyl)-1-((1S,3R)-3-(hydroxymethyl)-1-methyl-5-(1-methyl-1H-pyrazol-4-yl)-3,4-dihydroisoquinolin-2(1H)-yl)ethan-1-one] | 490 | 2426*** | 3568**** | increase basal movement in a dose dependent manner; also recorded: significant in vivo efficacy when orally administered at 6, 10, and 30 mg/kg PO | 86.6 nM | 60 nM | 1.5 nM | 2.34 nM | 120 nM | 57.6 nM | 1.44 nM | 3.23 nM | 1660 nM | 794 nM | 19.9 nM | 44.9 nM | 1.06 | 0.44 | 0.65 | 0.025 | Basal Locomotor Activity (Total Ambulations for 60 min), mean ([1]; 1.0 mg/kg PO): 410; Basal Locomotor Activity (Total Ambulations for 60 min), mean ([1]; 6.0 mg/kg PO): 1517*; Cu, brain ([2]; 1 mg/kg oral, male mouse, 1.5 hr): BQL; Brain con. ([2]; 1 mg/kg oral, male mouse, 1.5 hr, BQL = below 1 ng/mg tissue): BQL; Kp uu at 1.5 h ([2]; brain/plasma, 6 mg/kg oral, male mouse, read-out: Kpuu (Cu,brain vs. Cu,plasma)): 0.65; concentration at 1.5 h ([2]; male, mouse, brain, oral, 6 mg/kg, 6 mg/kg oral, read-out: Brain con.): 129 nM; concentration at 1.5 h ([2]; male, mouse, brain, oral, 6 mg/kg, 6 mg/kg oral, read-out: Cu, brain): 3.22 nM; concentration at 1.5 h ([2]; male, mouse, plasma, oral, 1 mg/kg, 1 mg/kg oral, read-out: Cu, plasma): 0.182 nM; concentration at 1.5 h ([2]; male, mouse, plasma, oral, 1 mg/kg, 1 mg/kg oral, read-out: Plasma con.): 6.74 nM; concentration at 1.5 h ([2]; male, mouse, plasma, oral, 6 mg/kg, 6 mg/kg oral, read-out: Cu, plasma): 4.67 nM; concentration at 1.5 h ([2]; male, mouse, plasma, oral, 6 mg/kg, 6 mg/kg oral, read-out: Plasma con.): 173 nM; fraction unbound [3, 20]: 0.027
C[C@H]1c2cccc(-c3cn[nH]c3)c2C[C@H](CO)N1C(=O)Cc1c(Cl)cccc1Cl [Example 8, 2-(2,6-dichlorophenyl)-1-((1S,3R)-3-(hydroxymethyl)-1-methyl-5-(1H-pyrazol-4-yl)-3,4-dihydroisoquinolin-2(1H)-yl)ethan-1-one] | 335 | 753 | 3746** | increase basal movement in a dose dependent manner | 87.4 nM | 66.3 nM | 0.66 nM | 2.71 nM | 901 nM | 267 nM | 2.67 nM | 27.9 nM | 10321 nM | 2391 nM | 23.9 nM | 320 nM | 0.24 | 0.1 | 0.07 | 0.01 | Basal Locomotor Activity (Total Ambulations for 60 min), mean ([1]; 20 mg/kg PO): 3629*; Basal Locomotor Activity (Total Ambulations for 60 min), mean ([1]; 60 mg/kg PO): 4080 ***; Kp uu at 1 h ([2]; brain/plasma, 20 mg/kg oral, male mouse, 1.5 hr, read-out: Kpuu (Cu,brain vs. Cu,plasma)): 0.1; Kp uu at 1 h ([2]; brain/plasma, 60 mg/kg oral, male mouse, 1.5 hr, read-out: Kpuu (Cu,brain vs. Cu,plasma)): 0.08; concentration at 1 h ([2]; male, mouse, brain, oral, 20 mg/kg, 20 mg/kg oral, 1.5 hr, read-out: Brain con.): 721 nM; concentration at 1 h ([2]; male, mouse, brain, oral, 20 mg/kg, 20 mg/kg oral, 1.5 hr, read-out: Cu, brain): 7.21 nM; concentration at 1 h ([2]; male, mouse, brain, oral, 60 mg/kg, 60 mg/kg oral, 1.5 hr, read-out: Brain con.): 5000 nM; concentration at 1 h ([2]; male, mouse, brain, oral, 60 mg/kg, 60 mg/kg oral, 1.5 hr, read-out: Cu, brain): 50 nM; concentration at 1 h ([2]; male, mouse, plasma, oral, 20 mg/kg, 20 mg/kg oral, 1.5 hr, read-out: Cu, plasma): 75.7 nM; concentration at 1 h ([2]; male, mouse, plasma, oral, 20 mg/kg, 20 mg/kg oral, 1.5 hr, read-out: Plasma con.): 2440 nM; concentration at 1 h ([2]; male, mouse, plasma, oral, 60 mg/kg, 60 mg/kg oral, 1.5 hr, read-out: Cu, plasma): 622 nM; concentration at 1 h ([2]; male, mouse, plasma, oral, 60 mg/kg, 60 mg/kg oral, 1.5 hr, read-out: Plasma con.): 20100 nM; fraction unbound [3, 20]: 0.031

Source: US10611751B2, “Dopamine D1 receptor positive allosteric modulators” (Eli Lilly and Company, priority 2018, dated 2020)
